# According to patent publication US20230049231A1 (priority 2019, published 2023):
# Biological target: T1, Kv1.3 potassium channel (Homo sapiens, UniProt P22001)
# T1 construct: expressed in transfected cells
# Assay: Kv1.3 potassium channel blocker activity, automated whole-cell patch clamp (Patchliner)
# Format: cell-based
# Conditions: CHO-K1 cells stably expressing Kv1.3; 100 ms pulses from -90 mV to +40 mV, 0.1 Hz
# Protocol: This assay is used to evaluate the disclosed compounds' activities as Kv1.3 potassium channel blockers.
# CHO-K1 cells stably expressing Kv1.3 were grown in DMEM containing 10% heat-inactivated FBS, 1 mM sodium pyruvate, 2 mM L-glutamine and G418 (500 μg/ml). Cells were grown in culture flasks at 37° C. in a 5% CO2-humidified incubator.
# The cells were bathed in an extracellular solution containing 140 mM NaCl, 4 mM KCl, 2 mM CaCl2), 1 mM MgCl2, 5 mM glucose, and 10 mM HEPES; pH adjusted to 7.4 with NaOH; 295-305 mOsm. The internal solution contained 50 mM KCl, 10 mM NaCl, 60 mM KF, 20 mM EGTA, and 10 mM HEPES; pH adjusted to 7.2 with KOH; 285 mOsm. All compounds were dissolved in DMSO at 30 mM. Compound stock solutions were freshly diluted with external solution to concentrations of 30 nM, 100 nM, 300 nM, 1 μM, 3 μM, 10 μM, 30 μM and 100 μM. The highest content of DMSO (0.3%) was present in 100 μM.
# The currents were evoked by applying 100 ms depolarizing pulses from −90 mV (holding potential) to +40 mV were applied with 0.1 Hz frequency. Control (compound-free) and compound pulse trains for each compound concentration applied contained 20 pulses.
# 10-second breaks were used between pulse trains (see Table 2 below).
# Whole-cell current recordings and compound application were enabled by means of an automated patch clamp platform Patchliner (Nanion Technologies GmbH). EPC 10 patch clamp amplifier (HEKA Elektronik Dr. Schulze GmbH) along with Patchmaster software (HEKA Elektronik Dr. Schulze GmbH) was used for data acquisition. Data were sampled at 10 kHz without filtering. Passive leak currents were subtracted online using a P/4 procedure (HEKA Elektronik Dr. Schulze GmbH). Increasing compound concentrations were applied consecutively to the same cell without washouts in between. Total compound incubation time before the next pulse train was not longer than 10 seconds. Peak current inhibition was observed during compound equilibration.
# AUC and peak values were obtained with Patchmaster (HEKA Elektronik Dr. Schulze GmbH). To determine IC50, the last single pulse in the pulse train corresponding to a given compound concentration was used. Obtained AUC and peak values in the presence of compound were normalized to control values in the absence of compound. Using Origin (OridinLab), IC50 was derived from data fit to Hill equation: Icompound/Icontrol=(100−A)/(1+([compound]/IC50)nH)+A, where IC50 value is the concentration at which current inhibition is half-maximal, [compound] is the applied compound concentration, A is the fraction of current that is not blocked and nH is the Hill coefficient.
# T1 sequence (P22001 whole entry): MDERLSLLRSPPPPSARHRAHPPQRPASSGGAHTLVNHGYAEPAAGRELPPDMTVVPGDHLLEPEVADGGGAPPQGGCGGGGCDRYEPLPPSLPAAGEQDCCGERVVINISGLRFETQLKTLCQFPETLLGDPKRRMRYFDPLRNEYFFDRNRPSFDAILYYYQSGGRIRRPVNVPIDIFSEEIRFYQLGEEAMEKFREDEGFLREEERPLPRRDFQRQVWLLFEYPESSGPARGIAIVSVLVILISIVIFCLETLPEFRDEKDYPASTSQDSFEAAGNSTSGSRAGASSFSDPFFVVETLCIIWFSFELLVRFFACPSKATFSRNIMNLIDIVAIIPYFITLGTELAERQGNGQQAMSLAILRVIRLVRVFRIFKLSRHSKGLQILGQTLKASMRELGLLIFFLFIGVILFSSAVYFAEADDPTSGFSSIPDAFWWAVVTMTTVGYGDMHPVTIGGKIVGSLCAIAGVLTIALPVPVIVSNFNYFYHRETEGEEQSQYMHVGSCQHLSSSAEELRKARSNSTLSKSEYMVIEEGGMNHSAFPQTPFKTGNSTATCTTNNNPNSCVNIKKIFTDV
row,IC50,Structure (SMILES)
1,< 1 µM,"O=C(CO)N1CC(=O)N2C[C@H](c3c(O)ccc(Cl)c3Cl)CC[C@H]2C1 (relative stereo) [Compound 13, (7S,9aS)-rel-7-(2,3-dichloro-6-hydroxyphenyl)-2-(2-hydroxyacetyl)-hexahydro-1H-pyrido[1,2-a]pyrazin-4-one]"
2,< 10 µM,"O=C1N[C@H](CO)CN2CC[C@@H](c3c(O)ccc(Cl)c3Cl)C[C@@H]12 [Compound 6, (3S,8R,9aS)-8-(2,3-dichloro-6-hydroxyphenyl)-3-(hydroxymethyl)-octahydropyrido[1,2-a]pyrazin-1-one]"
3,< 1 µM,"C[C@H]1C(=O)N2C[C@@H](c3c(O)ccc(Cl)c3Cl)C[C@H]2CN1C(=O)CO [Compound 60, (3S,7R,8aS)-7-(2,3-dichloro-6-hydroxyphenyl)-2-(2-hydroxyacetyl)-3-methyl-hexahydropyrrolo[1,2-a]pyrazin-4-one]"
4,< 10 µM,"C[C@@H]1C(=O)N2CC[C@@H](c3c(O)ccc(Cl)c3Cl)C[C@H]2CN1C(=O)CO [Compound 12, (3R,8R,9aS)-8-(2,3-dichloro-6-hydroxyphenyl)-2-(2-hydroxyacetyl)-3-methyloctahydro-4H-pyrido[1,2-a]pyrazin-4-one]"
5,< 1 µM,"CC(C)(O)C(=O)N1CC(=O)N2CC[C@@H](c3c(O)ccc(Cl)c3Cl)C[C@H]2C1 [Compound 31, (8R,9aS)-8-(2,3-dichloro-6-hydroxyphenyl)-2-(2-hydroxy-2-methylpropanoyl)octahydro-4H-pyrido[1,2-a]pyrazin-4-one]"
6,< 1 µM,"CN(C)C(=O)N1CC(=O)N2C[C@@H](c3c(O)ccc(Cl)c3Cl)C[C@H]2C1 [Compound 30, (7R,8aS)-7-(2,3-dichloro-6-hydroxyphenyl)-N,N-dimethyl-4-oxohexahydropyrrolo[1,2-a]pyrazine-2(1H)-carboxamide]"
7,< 1 µM,"O=C1[C@H](CO)OC[C@@H]2C[C@H](c3c(O)ccc(Cl)c3Cl)CCN12 (single isomer, unassigned) [Compound 43]"
8,< 10 µM,"O=C(CO)N1CC(=O)N2C[C@H](c3c(O)ccc(Cl)c3Cl)CC[C@@H]2C1 (relative stereo) [Compound 26, (7S,9aR)-rel-7-(2,3-dichloro-6-hydroxyphenyl)-2-(2-hydroxyacetyl)-hexahydro-1H-pyrido[1,2-a]pyrazin-4-one]"
9,< 1 µM,"O=C(CO)N1CC(=O)N2CC[C@H](c3c(O)cc(Cl)c(Cl)c3Cl)C[C@@H]2C1 [Compound 5, (8S,9aR)-2-(2-hydroxyacetyl)-8-(2,3,4-trichloro-6-hydroxyphenyl)-hexahydro-1H-pyrido[1,2-a]pyrazin-4-one]"
10,< 10 µM,"O=C1N[C@H](CO)CN2CC[C@H](c3c(O)ccc(Cl)c3Cl)C[C@H]12 [Compound 19, (3S,8S,9aR)-8-(2,3-dichloro-6-hydroxyphenyl)-3-(hydroxymethyl)-octahydropyrido[1,2-a]pyrazin-1-one]"
11,< 1 µM,"O=C([C@@H](O)CO)N1CC(=O)N2CC[C@H](c3c(O)ccc(Cl)c3Cl)C[C@@H]2C1 [Compound 51, (8S,9aR)-8-(2,3-dichloro-6-hydroxyphenyl)-2-[(2S)-2,3-dihydroxypropanoyl]-hexahydro-1H-pyrido[1,2-a]pyrazin-4-one]"
12,< 1 µM,"CO[C@@H](CO)C(=O)N1CC(=O)N2CC[C@@H](c3c(O)ccc(Cl)c3Cl)C[C@H]2C1 [Compound 56, (8R,9aS)-8-(2,3-dichloro-6-hydroxyphenyl)-2-[(2S)-3-hydroxy-2-methoxypropanoyl]-hexahydro-1H-pyrido[1,2-a]pyrazin-4-one]"
13,< 1 µM,"C[C@@H](O)CC(=O)N1CC(=O)N2C[C@@H](c3c(O)ccc(Cl)c3Cl)C[C@H]2C1 [Compound 53, (7R,8aS)-7-(2,3-dichloro-6-hydroxyphenyl)-2-[(3R)-3-hydroxybutanoyl]-hexahydropyrrolo[1,2-a]pyrazin-4-one]"

# Same assay, conditions: Kv1.3 potassium channel, whole-cell patch clamp
row,IC50,Structure (SMILES)
1,< 1 µM,"C=CCN1CC(=O)N2C[C@@H](c3c(O)ccc(Cl)c3Cl)C[C@H]2C1 [Compound 113, (7R,8aS)-7-(2,3-dichloro-6-hydroxyphenyl)-2-(prop-2-en-1-yl)-hexahydropyrrolo [l,2-a]pyrazin-4-one]"
2,< 1 µM,"N[C@@H]1C[C@@H]2C[C@H](c3c(O)ccc(Cl)c3Cl)CN2C1=O (single isomer, unassigned) [Compound 249]"
3,< 1 µM,"O=C1C(CO)C[C@@H]2C[C@H](c3c(O)ccc(Cl)c3Cl)CN12 (stereo partly drawn) [Compound 247, (6R,7aS)-6-(2,3-dichloro-6-hydroxyphenyl)-2-(hydroxymethyl)-hexahydropyrrolizin-3-one]"
4,< 1 µM,"CC(=O)NCC1OC[C@@H]2C[C@H](c3c(O)ccc(Cl)c3Cl)CCN2C1=O (stereo partly drawn) [Compound 186, N-[[(8R,9aS)-8-(2,3-dichloro-6-hydroxyphenyl)-4-oxo-hexahydro-1H-pyrido[2,1-c][1,4]oxazin-3-yl]methyl]acetamide]"
5,< 1 µM,"O=C1NCCC1N1CC(=O)N2C[C@@H](c3c(O)ccc(Cl)c3Cl)C[C@H]2C1 (stereo partly drawn) [Compound 109, 3-[(7R,8aS)-7-(2,3-dichloro-6-hydroxyphenyl)-4-oxo-hexahydropyrrolo [1,2-a]pyrazin-2-yl]pyrrolidin-2-one]"
6,< 1 µM,"N#C[C@@H]1CC(=O)N2C[C@@H](c3c(O)ccc(Cl)c3Cl)C[C@H]2C1 (single isomer, unassigned) [Compound 228]"
7,< 10 µM,O=C1CN(c2ncccc2CO)C[C@@H]2C[C@H](c3c(O)ccc(Cl)c3Cl)CN12 [Compound 174]
8,< 1 µM,"O=C1C[C@@H](O)[C@@H](O)[C@@H]2C[C@H](c3c(O)ccc(Cl)c3Cl)CN12 (relative stereo) [Compound 224, (7R,8S)-rel-(2R, 8aS)-2-(2,3-dichloro-6-hydroxyphenyl)-7,8-dihydroxy-hexahydro-1H-indolizin-5-one]"
9,< 1 µM,"O=C(O)C1CC(=O)N2C[C@@H](c3c(O)ccc(Cl)c3Cl)C[C@H]2C1 (stereo partly drawn) [Compound 229, (2R,8aS)-2-(2,3-dichloro-6-hydroxyphenyl)-5-oxo-hexahydro-1H-indolizine-7-carboxylic acid]"
10,< 1 µM,"O=C(CO)N1CC[C@@H]2C[C@H](c3c(O)ccc(Cl)c3Cl)CN2C(=O)C1 [Compound 90, (8R,9aS)-8-(2,3-dichloro-6-hydroxyphenyl)-3-(2-hydroxyacetyl)-hexahydro-1H-pyrrolo[1,2-d][1,4]diazepin-5-one]"
11,< 1 µM,"O=C1CN(C2CC[C@H](O)[C@@H]2O)C[C@@H]2C[C@H](c3c(O)ccc(Cl)c3Cl)CN12 (relative stereo) [Compound 135, (7R,8aS)-7-(2,3-dichloro-6-hydroxyphenyl)-2-[(2R,3S)-rel-2,3-dihydroxycyclopentyl]-hexahydropyrrolo [1,2-a]pyrazin-4-one]"
12,< 1 µM,"CCN(CC)C(=O)N1CC(=O)N2C[C@@H](c3c(O)ccc(Cl)c3Cl)C[C@H]2C1 [Compound 99, (7R,8aS)-7-(2,3-dichloro-6-hydroxyphenyl)-N,N-diethyl-4-oxo-hexahydropyrro[1,2-a]pyrazine-2-carboxamide]"
13,< 10 µM,"O=C1C[C@H](c2cc[nH]n2)C[C@@H]2C[C@H](c3c(O)ccc(Cl)c3Cl)CN12 (single isomer, unassigned) [Compound 214]"
14,< 1 µM,"O=C1C[C@@H](c2cc[nH]n2)C[C@@H]2C[C@H](c3c(O)ccc(Cl)c3Cl)CN12 (single isomer, unassigned) [Compound 213]"
15,< 1 µM,"O=C1OC[C@@H]2C[C@H](c3c(O)ccc(Cl)c3Cl)CCN12 [Compound 252, (7R,8aS)-7-(2,3-dichloro-6-hydroxyphenyl)-hexahydro-[1,3]oxazolo[3,4-a]pyridin-3-one]"
16,< 1 µM,"O=C(NCCO)[C@H]1CC(=O)N2C[C@@H](c3c(O)ccc(Cl)c3Cl)C[C@H]2C1 (single isomer, unassigned) [Compound 233]"
17,< 1 µM,"NC(=O)[C@@H]1CC(=O)N2C[C@@H](c3c(O)ccc(Cl)c3Cl)C[C@H]2C1 (single isomer, unassigned) [Compound 230]"
18,< 1 µM,"O=C1CC[C@@H](O)[C@@H]2C[C@H](c3c(O)ccc(Cl)c3Cl)CN12 (single isomer, unassigned) [Compound 227]"
19,< 10 µM,"CN1C[C@@H]2C[C@H](c3c(O)ccc(Cl)c3Cl)CN2C1=O [Compound 291, (6R,7aS)-6-(2,3-dichloro-6-hydroxyphenyl)-2-methyl-tetrahydro-1H-pyrrolo[1,2-c]imidazol-3-one]"
